Data set [1] concerns ROS. Nature of the data set: ROS detection by flow cytometry in SF3B1-K700E BM cells. In kind it is cell-based, mouse. As to conditions: NAC or DPI treatment. The source says: (§1) ROS detection. ROS were detected using CM-H2DCFDA and CellROX® Deep Red Reagent according to manufacturer's protocol (Life Technologies).
The subject of the next data set is inflammasome. Nature of the data set: ASC staining flow cytometry for inflammasome formation in SF3B1-K700E BM cells. In kind it is cell-based, mouse. As to conditions: 24 hours treatment. The method, then:
ASC staining to detect inflammasome formation by flow cytometry. Staining was carried out as described ([…], et al. J Immunol. 2015 194(1):455-62). Briefly, cell pellets were resuspended in 1 mL of prewarmed BD Permeabilization Buffer III, and incubated on ice for 30 minutes. Cells were washed 2× with staining buffer. Following washing, cells were stained with rabbit-anti-ASC primary antibodies at a 1:1500 dilution and incubated for 90 minutes. Cells were washed, stained with secondary antibodies at a dilution of 1:1500, and incubated for 45 minutes. Cells were washed, and sample acquisitions were carried out using a BD LSR II flow cytometer and FACSDiva software.
On the technique in general: In flow cytometry, cells or beads pass a laser one at a time.

Data set [2] concerns β-catenin. The data set is described as follows: β-catenin confocal microscopy in U2AF1 S34F mutant TF-1 cells. Format: cell-based. As to conditions: treated for 24 hours prior to staining. The method, then: Reagents and cells. U937 cells were grown in RPMI1640 supplemented with 10% FBS. TF-1 U2AF1 mutant and mock WT cells were cultured in RPMI1640 supplemented with 10% FBS and 2 ng/mL recombinant human GM-CSF. Cells were maintained at 37° C. under 5% CO2. Normal, heparinized BM aspirates were purchased from Lonza Walkersville or AllCells, LLC. […] J Clin Invest. 2013 123(11):4595-611). The IRAK4 inhibitor was acquired through material transfer agreement from Nimbus Discovery. NAC and DPI were purchased from Sigma-Aldrich. Active caspase-1 and caspase-3/7 were detected using FAM-FLICA® Caspase-1 and Caspase-3/7 activity kits, (ImmunoChemistry Technologies). NLRP1 antibodies were purchased from Santa Cruz Biotechnology, NLRP3 antibodies from Abcam, and β-catenin antibodies from BD Biosciences. Immunofluorescence confocal microscopy. MDS and normal donor BM-MNC and mouse BM cells were stained with 30× FAM-FLICA® Caspase-1 solution at a ratio of 1:30 for 2 hours at 37° C. Cells were washed and cytospins were generated using a 5 minutes centrifugation at 450 rpm. Slides were fixed at 37° C. for 10 minutes using BD Cytofix Fixation Buffer (BD Biosciences), and subsequently washed using PBS. […] Co-localization of a-caspase-1 with NLRP3 inflammasome complexes was assessed using a Leica TCS SP5 AOBS Laser Scanning Confocal microscope (Leica Microsystems). […]

For data set [3], the system named is β-catenin. The data set is described as follows: β-catenin confocal microscopy in SF3B1-K700E BM cells. Format: cell-based, mouse. As to conditions: 24 hours treatment. On the procedure: (§2) Immunofluorescence confocal microscopy. MDS and normal donor BM-MNC and mouse BM cells were stained with 30× FAM-FLICA® Caspase-1 solution at a ratio of 1:30 for 2 hours at 37° C. Cells were washed and cytospins were generated using a 5 minutes centrifugation at 450 rpm. Slides were fixed at 37° C. for 10 minutes using BD Cytofix Fixation Buffer (BD Biosciences), and subsequently washed using PBS. Cells were permeabilized with 0.1% Triton X-100/2% BSA in PBS for 15 minutes at room temperature. After washing with PBS, cells were blocked using 2% BSA in PBS for 30 minutes at room temperature, and washed again. Cells were incubated with the appropriate primary antibody overnight (1:400 for NLRP3, 1:20 for β-catenin) at 4° C. The next day, cells were washed with PBS and incubated with the appropriate secondary antibodies (1:500) for 1 hour at room temperature. After washing, cells were covered with ProLong Gold Antifade Reagent with DAPI prior to the addition of a coverslip (Life Technologies). Co-localization of a-caspase-1 with NLRP3 inflammasome complexes was assessed using a Leica TCS SP5 AOBS Laser Scanning Confocal microscope (Leica Microsystems). Analysis of the inflammasome images was performed with Definiens Developer 2.0 (Definiens AG). The software was used to segment cells based on brightness and size thresholds, followed by a watershed segmentation algorithm. […]

Data set [4] relates to β-catenin. Nature of the data set: β-catenin confocal microscopy in normal BM-MNC. In kind it is cell-based, human. On the procedure:
as §2

For data set [5], the system named is pyroptosis-associated genes. The data set is described as follows: qPCR of pyroptosis-associated genes in normal BM-MNC treated with rhS100A9. As to conditions: normal BM-MNC (n=2), 1 μg/mL, 24 hours. In kind it is cell-based, human. The method, then:
Real-time quantitative PCR. RNA was isolated from BM-MNC using the RNeasy Mini Kit (Qiagen). cDNA was produced using the iScript cDNA Synthesis Kit (Bio-Rad). Sequences for primers can be found in Table 1. GAPDH mRNA was used for transcript normalization. cDNA was amplified using the iQ SYBR Green Supermix and the CFX96 Real-Time PCR Detection System (Bio-Rad). PCR conditions were as follows: 10 minutes at 95° C., followed by 40 cycles of amplification (15 seconds at 95° C. and 1 minute at 60° C.). Relative gene expression was calculated using the −2^ΔΔCt method.

The test system of data set [6] is ROS. Nature of the data set: ROS detection by flow cytometry in U937 cells. Format: cell-based. As to conditions: U937, 5 μg/mL, 24 hours, compared to untreated cells.
Excerpt: as §1

Data set [7] relates to U937 cells. The data set is described as follows: Comet assay of DNA damage in U937 cells. In kind it is cell-based. As to conditions: U937, 5 μg/mL, 24 hours, compared to untreated cells. On the procedure:
Comet assays. Monocytic U937 cells were treated with 5 μg/mL rhS100A9 for 24 hr. DNA damage was measured by single cell gel electrophoresis using alkaline CometAssay® according to manufacturer's protocol (Trevigen Inc.).

Data set [8] relates to U937 cells. The data set is described as follows: Pore formation, ethidium bromide uptake in U937 cells. In kind it is cell-based. As to conditions: U937, 5 μg/mL rhS100A9, 12.5 μg/mL ethidium bromide.
In data set [9] the test system is NLRP3 inflammasome. Nature of the data set: Confocal microscopy of a-caspase-1/NLRP3 in WT mouse BM cells treated with rhS100A9. Format: cell-based. As to conditions: 5 μg/mL, 24 hours. The method, then:
(§3) Immunofluorescence confocal microscopy. MDS and normal donor BM-MNC and mouse BM cells were stained with 30× FAM-FLICA® Caspase-1 solution at a ratio of 1:30 for 2 hours at 37° C. Cells were washed and cytospins were generated using a 5 minutes centrifugation at 450 rpm. Slides were fixed at 37° C. for 10 minutes using BD Cytofix Fixation Buffer (BD Biosciences), and subsequently washed using PBS. Cells were permeabilized with 0.1% Triton X-100/2% BSA in PBS for 15 minutes at room temperature. After washing with PBS, cells were blocked using 2% BSA in PBS for 30 minutes at room temperature, and washed again. Cells were incubated with the appropriate primary antibody overnight (1:400 for NLRP3, 1:20 for β-catenin) at 4° C. The next day, cells were washed with PBS and incubated with the appropriate secondary antibodies (1:500) for 1 hour at room temperature. After washing, cells were covered with ProLong Gold Antifade Reagent with DAPI prior to the addition of a coverslip (Life Technologies). Co-localization of a-caspase-1 with NLRP3 inflammasome complexes was assessed using a Leica TCS SP5 AOBS Laser Scanning Confocal microscope (Leica Microsystems). Analysis of the inflammasome images was performed with Definiens Developer 2.0 (Definiens AG). The software was used to segment cells based on brightness and size thresholds, followed by a watershed segmentation algorithm. Intensity values and Pearson's correlation coefficient were extracted from the segmented cells. For β-catenin image analysis, confocal images were imported into Definiens Tissue Studio v3.0, 64 Dual in .tif format. Cells were separated from background using the RGB thresholds. Nuclei were identified by setting thresholds in the DAPI channel. Typical cells averaged 60 microns. The red intensity (β-catenin) in the nucleus and cytoplasm was established by setting thresholds to low, medium and high in the red channel on a scale of 0-255 in the red channel.

The target in data set [10] is T1, NLRP3 inflammasome (Homo sapiens, UniProt Q96P20).
T1 construct: endogenous in cells; host or cells: U937 cells
The data set is described as follows: Confocal microscopy of a-caspase-1/NLRP3 inflammasome formation in U937 cells. Format: cell-based. As to conditions: 5 μg/mL, 24 hours.

The subject of data set [11] is U937 cells. Nature of the data set: S100A9 flow cytometry experiments in U937 cells (a-caspase-1/annexin-V). In kind it is cell-based. On the procedure: S100A9 flow cytometry experiments in U937 cells. Monocytic U937 cells were treated with the indicated concentrations of rhS100A9 for 24 hours, or with 5 μg/mL rhS100A9 for the indicated time points. Subsequently, cells were stained with 30× FAM-FLICA® Caspase-1 solution at a ratio of 1:30 for 2 hours at 37° C. Cells were washed, resuspended in 1× binding buffer, and stained with Annexin-V:PE at a dilution of 1:30 for 15 minutes at room temperature. 1× binding buffer was added to a final volume of 350 μL. Sample acquisitions were carried out using a BD FACSCalibur flow cytometer (BD Biosciences). Data were analyzed using FlowJo 9.7.5 software.

Data set [12] deals with NLRP3 inflammasome. Nature of the data set: Confocal microscopy of a-caspase-1/NLRP3 in normal BM-MNC treated with rhS100A9. Format: cell-based, human. As to conditions: 5 μg/mL, 24 hours. The method, then: as §3
For data set [13], the system named is β-catenin. Nature of the data set: β-catenin confocal microscopy in U937 cells. In kind it is cell-based. As to conditions: 5 μg/mL, 24 hours, compared to untreated cells.
Where [14] appears, read: increasing concentrations, 24 hours.

The source of these data is patent publication US10488411B2, “Inflammasome activation in myelodysplastic syndromes” (H. LEE MOFFITT CANCER CENTER AND RESEARCH INSTITUTE, INC., priority 2015, dated 2019).

T1 sequence (Q96P20 whole entry): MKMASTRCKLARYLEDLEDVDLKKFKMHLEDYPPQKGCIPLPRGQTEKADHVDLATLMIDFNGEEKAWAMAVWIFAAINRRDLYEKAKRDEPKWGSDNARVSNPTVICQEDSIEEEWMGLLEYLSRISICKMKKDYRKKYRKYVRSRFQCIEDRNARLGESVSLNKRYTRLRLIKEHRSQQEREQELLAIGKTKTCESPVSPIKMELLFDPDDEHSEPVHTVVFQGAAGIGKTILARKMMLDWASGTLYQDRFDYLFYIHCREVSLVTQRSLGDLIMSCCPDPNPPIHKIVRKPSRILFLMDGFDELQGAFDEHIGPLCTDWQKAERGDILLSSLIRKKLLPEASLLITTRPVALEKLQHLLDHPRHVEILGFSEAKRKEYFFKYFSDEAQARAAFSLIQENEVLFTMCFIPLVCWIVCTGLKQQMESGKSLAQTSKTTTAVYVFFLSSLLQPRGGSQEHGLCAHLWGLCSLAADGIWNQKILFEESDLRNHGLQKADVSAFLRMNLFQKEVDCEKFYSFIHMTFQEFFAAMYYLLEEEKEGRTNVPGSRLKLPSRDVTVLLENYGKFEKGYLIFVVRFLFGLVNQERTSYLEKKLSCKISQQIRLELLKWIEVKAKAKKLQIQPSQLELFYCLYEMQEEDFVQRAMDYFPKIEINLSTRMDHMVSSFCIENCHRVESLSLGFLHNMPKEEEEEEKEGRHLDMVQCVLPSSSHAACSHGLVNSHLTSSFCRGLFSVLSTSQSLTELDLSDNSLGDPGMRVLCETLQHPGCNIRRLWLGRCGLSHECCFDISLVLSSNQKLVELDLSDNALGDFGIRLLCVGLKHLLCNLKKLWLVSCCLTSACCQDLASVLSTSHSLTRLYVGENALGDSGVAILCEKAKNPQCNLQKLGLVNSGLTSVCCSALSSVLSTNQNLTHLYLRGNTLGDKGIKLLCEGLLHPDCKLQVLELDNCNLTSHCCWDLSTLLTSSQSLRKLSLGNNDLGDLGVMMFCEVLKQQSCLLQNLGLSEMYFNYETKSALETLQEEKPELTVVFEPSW

Regarding `c1ccc2c(c1)[I+]c1ccccc1-2` [DPI], in the data set with ROS [1], the “ROS MFI in SF3B1-K700E BM cells” value is “extinguished below the level of WT controls” and the “mean percentage of ROS+ cells in SF3B1-K700E BM cells” value is “extinguished below the level of WT controls”. Further, the “inflammasome formation (ASC) in SF3B1-K700E mutant-expressing BM cells” value in the data set with inflammasome was “significantly reduced”. Moreover, the “β-catenin activation in U2AF1-S34F mutant cells” value in the data set on β-catenin [2] was “effectively reduced”. The “percentage of cells with elevated levels of nuclear β-catenin in SF3B1-K700E BM cells” value in the data set on β-catenin [3] is on record as “significantly reduced”.

For the molecule `CC(=O)N[C@@H](CS)C(=O)O` [NAC, N-acetylcysteine], in the data set with ROS [1], the “ROS MFI in SF3B1-K700E BM cells” value is listed as “extinguished below the level of WT controls” and the “mean percentage of ROS+ cells in SF3B1-K700E BM cells” value is listed as “extinguished below the level of WT controls”. In addition, in the data set with inflammasome, the “inflammasome formation (ASC) in SF3B1-K700E mutant-expressing BM cells” value is “significantly reduced”. In the data set with β-catenin [2], the “β-catenin activation in U2AF1-S34F mutant cells” value is given as “effectively reduced”. Also, the “S100A9-triggered nuclear translocation of β-catenin in normal BM-MNC” value in the data set with β-catenin [4] (S100A9 treatment of normal BM-MNC) is listed as “abolished”. Further, in the data set on β-catenin [3], the “percentage of cells with elevated levels of nuclear β-catenin in SF3B1-K700E BM cells” value is “significantly reduced”.

In the case of “rhS100A9: recombinant human S100A9, alarmin / DAMP protein, TLR4 and CD33 ligand”, the “expression of pyroptosis-associated genes” value in [5] is recorded as “significantly up-regulated”. Moreover, in the data set with ROS [6], the “fold increase in mean percentage of ROS-positive cells” value is listed as 2.9 fold. Besides, the “fold increase in DNA damage” value in the data set on U937 cells [7] turned out to be 4.1 fold. The “uptake of ethidium bromide” value with U937 cells [8] was “rapid and substantial uptake”. Also, the inflammasome complexes entry in the data set with NLRP3 inflammasome [9] is “marked induction”. In the data set on NLRP3 inflammasome [9] (versus controls), the “MFI of NLRP3” value is “significantly increased” and the “MFI of a-caspase-1” value is “significantly increased”. In addition, in the data set with NLRP3 inflammasome [10], the “levels of NLRP3 inflammasome complexes in U937” value was “markedly increased”. The “activation of caspase-1 in U937 over time” value in the data set on U937 cells [11] (5 μg/mL) is on record as “time-dependent increase”. Further, in the data set with U937 cells [11] (setting [14]), the “a-caspase-1 MFI in U937” value is listed as “corresponding increase”, the “fraction of pyroptotic cells in U937” value is listed as “concentration-dependent increase” and the “percentage of a-caspase-1+ cells in U937” value is listed as “corresponding increase”. Also, the “levels of nuclear β-catenin in normal BM-MNC” value in the data set with β-catenin [4] (5 μg/mL, 24 hours, compared to controls) is on record as “elevated levels”. In the data set on NLRP3 inflammasome [12], the “NLRP3 levels, fold induction” value worked out at 47.1 fold; the “a-caspase-1 levels, fold induction” value amounted to 2.5 fold; the “formation of NLRP3 inflammasomes, fold induction” value was found to be 2.9 fold. Besides, the “levels of nuclear (activated) β-catenin in U937” value in the data set on β-catenin [13] is given as “marked increases”.
